The target in one experiment is T1, μ opioid receptor (Homo sapiens, UniProt P35372).
T1 construct: expressed in transfected cells; host or cells: CHO cells (membranes)
The experiment in a line: Competition binding assay on membranes of CHO cells expressing μ opioid receptor, [3H]-labeled ligand. Conditions: Table 5-1; for inhibition at 1 µM: 0.5 h, 1 μM concentration of compound, read-out: μOR Combination rate (%); for Ki: read-out: μOR Ki. A digest of the protocol: (§1)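 CHO membranes (20–30 μg protein) incubated with [3H]-labeled ligand at 1–2 nM and test compounds, 30 min at 30° C; nonspecific binding with 1 μM corresponding ligand. Filtered on GF/C, washed with 50 mM Tris-HCl pH 7.4, scintillation-counted. IC50 converted to Ki by Ki=IC50/(1+[L]/Kd).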

Another experiment has as its target T2, δ opioid receptor (Homo sapiens, UniProt P41143).
T2 construct: expressed in transfected cells; host or cells: CHO cells (membranes)
The experiment in a line: Competition binding assay on membranes of CHO cells expressing δ opioid receptor, [3H]-labeled ligand. Conditions: Table 5-1; for inhibition at 1 µM: 0.5 h, 1 μM concentration of compound, read-out: δOR Combination rate (%); for Ki: read-out: δOR Ki. A digest of the protocol: as §1

For another experiment, the target named is T3, κ opioid receptor (Homo sapiens, UniProt P41145).
T3 construct: expressed in transfected cells; host or cells: CHO cells (membranes)
The experiment in a line: Competition binding assay on membranes of CHO cells expressing κ opioid receptor, [3H]-labeled ligand. Conditions: Table 5-1; for inhibition at 1 µM: 0.5 h, 1 μM concentration of compound, read-out: κOR Combination rate (%); for Ki: read-out: κOR Ki. An outline of the steps: as §1

Another experiment deals with Female mice. Description: In vivo hot plate method analgesia test. Conditions: intraperitoneal; for Maximum percentage effective analgesia (% MPE): Table 5-2, hot plate 55° C., 10 mg/kg dose. The method, then: Female mice weighing about 20 g were placed on a hot plate apparatus preheated to 55° C., and the latency of the hindfoot response of the mice was used as the pain threshold indicator. Animals were screened before the experiment, and those with response latency less than 5 s or more than 30 s were excluded. To prevent foot scalding, the maximum observation time was set at 60 s. The basal pain threshold was the average of two measurements, with a 5-min interval between measurements. pain thresholds were measured at 15 m, 30 m, 60 m and 120 m after intraperitoneal injection in each group of mice. The percentage effective analgesia (% MPE) was calculated according to the following formula: percentage effective analgesia (% MPE) (post-dose latency−pre-dose latency)/(60−pre-dose latency)×100%. ED50 values were calculated based on the effective percentage of analgesia using the software Graphpad prism 5.0 software.
(§2) Female mice weighing about 20 g were placed on a hot plate apparatus preheated to 55° C., and the latency of the hindfoot response of the mice was used as the pain threshold indicator. Animals were selected before the experiment, and those with response latency less than 5 s or greater than 30 s were excluded. To prevent foot scalding, the maximum observation time was set at 60 s. The basal pain threshold was the average of two measurements, with a 5-min interval between measurements. pain thresholds were measured at 15 min, 30 min, 60 min and 120 min after intraperitoneal administration in each group of mice. The percentage of analgesic effectiveness (% MPE) was calculated according to the following equation. Percentage of effective analgesia (% MPE)_(Pre-dose incubation period−Incubation period after drug administration)/(60-Pre-dose incubation period)×100%. ED50 values were calculated based on the effective percentage of analgesia using GraphPad prism 5.0 software.
as §2, with “were screened” for “were selected”, “measurements. Pain” for “measurements. pain”, “following formula.” for “following equation. Percentage of effective analgesia (% MPE)_(Pre-dose incubation period−Incubation period after drug administration)/(60-Pre-dose incubation period)×100%. ED50 values were calculated based on the effective percentage of analgesia using GraphPad prism 5.0 software.”
ED50 values were calculated based on the effective percentage of analgesia using Graphpad Prism 5.0.
Female mice weighing about 20 g were placed on a hot plate apparatus preheated to 55° C., and the latency of the hindfoot response of the mice was used as the pain threshold indicator. Animals were screened before the experiment, and those with response latency less than 5 s or more than 30 s were excluded. To prevent foot scalding, the maximum observation time was set at 60 s. The basal pain threshold was the average of two measurements, with a 5-min interval between measurements. pain thresholds were measured at 15 min, 30 min, 60 min and 120 min after intraperitoneal administration in each group of mice. The analgesic effective percentage (% MPE) was calculated according to the following formula: analgesic effective percentage (% MPE)=(latency after drug administration−latency before drug administration)/(60−latency before drug administration)×100%. ED50 values were calculated based on the effective percentage of analgesia using the software Graphpad prism 5.0.
Female mice weighing about 20 g were placed on a hot plate apparatus preheated to 55° C. and the latency of the hindfoot response was used as an indicator of pain threshold. […]

As for `COc1cccc(C2(O)CCN(C(=O)Cn3cnnn3)CC2CN(C)C)c1.Cl` (stereo not shown) [FWBE7, 1-(3-((Dimethylamino)methyl)-4-hydroxy-4-(3-methoxyphenyl)piperidin-1-yl)-2-(1H-tetrazol-1-yl)ethyl-1-one hydrochloride], the inhibition at 1 µM on μ opioid receptor amounted to 0%; at δ opioid receptor, 8.9 ± 2.4%; on κ opioid receptor, 22.9 ± 0.6%. Moreover, in the experiment with Female mice, the “Maximum percentage effective analgesia (% MPE)” value was 12.0%.
Regarding `COc1cccc(C2(O)CCN(C(=O)Cc3cccs3)CC2CN(C)C)c1.Cl` (stereo not shown) [FWBE8, 1-(3-((Dimethylamino)methyl)-4-hydroxy-4-(3-methoxyphenyl)piperidin-1-yl)-2-(thiophen-2-yl)ethyl-1-one hydrochloride], the Ki at μ opioid receptor was found to be 34.8 ± 1.1 nM. For the same compound, the inhibition at 1 µM on δ opioid receptor came out at 18.7 ± 1.9%; at κ opioid receptor, 32.5 ± 4.4%. In addition, in the experiment on Female mice, the “Maximum percentage effective analgesia (% MPE)” value was determined as 93.0%.
`COc1cccc(C2(O)CCN(C(=O)Cc3cccc(Cl)c3)CC2CN(C)C)c1.Cl` (stereo not shown) [FWBE9, 2-(3-Chlorophenyl)-1-(3-((dimethylamino)methyl)-4-hydroxy-4-(3-methoxyphenyl)piperidin-1-yl)ethyl-1-one hydrochloride]: the figures for the inhibitory constant (Ki) on μ opioid receptor, on δ opioid receptor and at κ opioid receptor were 24.2 nM, 1640 ± 148 nM and 1010 ± 60.1 nM, respectively. Moreover, the “Maximum percentage effective analgesia (% MPE)” value with Female mice is listed as 86.38%.
`COc1cccc(C2(O)CCN(C(=O)Cc3cccc(F)c3)CC2CN(C)C)c1.Cl` (stereo not shown) [FWBE12, 1-(3-((Dimethylamino)methyl)-4-hydroxy-4-(3-methoxyphenyl)piperidin-1-yl)-2-(3-fluorophenyl)ethyl-1-one hydrochloride]: the Ki at μ opioid receptor turned out to be 82.3 ± 3.8 nM; on δ opioid receptor it was 2390 ± 46 nM; on κ opioid receptor, 2360 ± 95.5 nM. The “Maximum percentage effective analgesia (% MPE)” value in the experiment on Female mice is given as 88.38%.
The matching figures for `COc1cccc(C2(O)CCN(C(=O)Cn3ccc4ccccc43)CC2CN(C)C)c1.Cl` (stereo not shown) [FWBE14, 1-(3-((Dimethylamino)methyl)-4-hydroxy-4-(3-methoxyphenyl)piperidin-1-yl)-2-(1H-indol-1-yl)ethyl-1-one hydrochloride]: 72.9 ± 0.1 nM, 1180 ± 220 nM, 4060 ± 382 nM and 54.23%.
The matching figures for `COc1cccc(C2(O)CCN(C(=O)Cc3ccc4ccccc4c3)CC2CN(C)C)c1.Cl` (stereo not shown) [FWBE15, 1-(3-((Dimethylamino)methyl)-4-hydroxy-4-(3-methoxyphenyl)piperidin-1-yl)-2-(naphthalen-2-yl)ethyl-1-one hydrochloride]: 81.6 ± 1 nM, above 10000 nM, 2651 ± 3.5 nM and 0%.
Taken in the same sequence, the figures for `COc1cccc(C2(O)CCN(C(=O)Cc3cccc4ccccc34)CC2CN(C)C)c1.Cl` (stereo not shown) [FWBE16, 1-(3-((Dimethylamino)methyl)-4-hydroxy-4-(3-methoxyphenyl)piperidin-1-yl)-2-(naphthalen-1-yl)ethyl-1-one hydrochloride] were 353 ± 4.5 nM, 2160 ± 72 nM, 1700 ± 379 nM and 78.72%.
On to `COc1cccc(C2(O)CCN(C(=O)Cc3ccc(Cl)c(Cl)c3)CC2CN(C)C)c1.Cl` (stereo not shown) [FWBE17, 2-(3,4-Dichlorophenyl)-1-(3-((dimethylamino)methyl)-4-hydroxy-4-(3-methoxyphenyl)piperidin-1-yl)ethyl-1-one hydrochloride], for which the inhibition constant (Ki) on μ opioid receptor worked out at 69.2 ± 0.4 nM; at δ opioid receptor, 805 ± 173 nM; at κ opioid receptor, 288 ± 12.8 nM. Also, the “Maximum percentage effective analgesia (% MPE)” value in the experiment with Female mice amounted to 70.66%.
On to `COc1cccc(C2(O)CCN(C(=O)Cc3cc(F)c(F)cc3F)CC2CN(C)C)c1.Cl` (stereo not shown) [FWBE18, 1-(3-((Dimethylamino)methyl)-4-hydroxy-4-(3-methoxyphenyl)piperidin-1-yl)-2-(2,4,5-trifluorophenyl)ethyl-1-one hydrochloride], for which the inhibition at 1 µM at μ opioid receptor was 29.7 ± 1.9%; on δ opioid receptor, 0%; at κ opioid receptor it was 61.6 ± 0.7%. This compound gave an ED50 in the experiment with Female mice (Mus musculus, ip, Table 5-2, hot plate) of 1.11 mg/kg.
As to `COc1cccc(C2(O)CCN(C(=O)Cc3ccc(Cl)cc3)CC2CN(C)C)c1.Cl` (stereo not shown) [FWBE19, 2-(4-Chlorophenyl)-1-(3-((dimethylamino)methyl)-4-hydroxy-4-(3-methoxyphenyl)piperidin-1-yl)ethyl-1-one hydrochloride], the inhibition at 1 µM at μ opioid receptor turned out to be 25.2 ± 5.2%; on δ opioid receptor it was 0%; at κ opioid receptor, 39.4 ± 4.5%. Moreover, in the experiment with Female mice, the “Maximum percentage effective analgesia (% MPE)” value is 73.98%.
The matching figures for `COc1cccc(C2(O)CCN(C(=O)Cc3cccc(C#N)c3)CC2CN(C)C)c1.Cl` (stereo not shown) [FWBE21, 3-(2-(3-((Dimethylamino)methyl)-4-hydroxy-4-(3-methoxyphenyl)piperidin-1-yl)-2-oxoethyl) benzonitrile hydrochloride]: 28.9 ± 17%, 25.4 ± 4.4%, 42.3 ± 3.3% and 67.09%.
For `COc1cccc(C2(O)CCN(C(=O)Cc3cccc([N+](=O)[O-])c3)CC2CN(C)C)c1.Cl` (stereo not shown) [FWBE22, 1-(3-((Dimethylamino)methyl)-4-hydroxy-4-(3-methoxyphenyl)piperidin-1-yl)-2-(3-nitrophenyl) ethyl-1-one hydrochloride], the values for the Ki on μ opioid receptor, at δ opioid receptor and on κ opioid receptor were 85.6 ± 15.4 nM, above 10000 nM and 1990 ± 146 nM, respectively. Besides, the “Maximum percentage effective analgesia (% MPE)” value in the experiment with Female mice is given as 72.88%.
Taken in the same sequence, the figures for `COc1cccc(C2(O)CCN(C(=O)C(C)(C)c3ccccc3)CC2CN(C)C)c1.Cl` (stereo not shown) [FWBE23, 1-(3-((Dimethylamino)methyl)-4-hydroxy-4-(3-methoxyphenyl)piperidin-1-yl)-2-methyl-2-phenylpropan-1-one hydrochloride] were 52.6 ± 3.83 nM, 688 ± 540 nM, 44.4 ± 0.96 nM and 33.72%.
For `COc1cccc(C2(O)CCN(C(=O)C3(c4ccccc4)CC3)CC2CN(C)C)c1.Cl` (stereo not shown) [FWBE24, (3-((Dimethylamino)methyl)-4-hydroxy-4-(3-methoxyphenyl)piperidin-1-yl)(1-phenylcyclopropyl)methanone hydrochloride], the figures for the Ki on μ opioid receptor, on δ opioid receptor and at κ opioid receptor were 67.15 ± 0.08 nM, 848 ± 529 nM and 33.9 ± 0.92 nM, respectively. Further, the “Maximum percentage effective analgesia (% MPE)” value with Female mice stood at 29.85%.
Taken in the same sequence, the figures for `COc1cccc(C2(O)CCN(C(=O)C3(c4ccccc4)CCC3)CC2CN(C)C)c1.Cl` (stereo not shown) [FWBE25, (3-((Dimethylamino)methyl)-4-hydroxy-4-(3-methoxyphenyl)piperidin-1-yl)(1-phenylcyclobutyl) methanone hydrochloride] were 80.9 ± 5.67 nM, 717 ± 253 nM, 205 ± 40.9 nM and 5.03%.
As to `COc1cccc(C2(O)CCN(C(=O)C3(c4ccccc4)CCCC3)CC2CN(C)C)c1.Cl` (stereo not shown) [FWBE26, (3-((Dimethylamino)methyl)-4-hydroxy-4-(3-methoxyphenyl)piperidin-1-yl)(1-phenylcyclopentyl) methanone hydrochloride], the inhibitory constant (Ki) on μ opioid receptor worked out at 73.72 ± 0.32 nM; on δ opioid receptor, 1640 ± 1160 nM; on κ opioid receptor, 32.6 ± 4.35 nM. Further, the “Maximum percentage effective analgesia (% MPE)” value with Female mice came to 52.96%.

(Values after US12624004B2 (Fudan University, priority 2019, dated 2026).)
